The text below walks through data of patent publication USH1551H, “Topical composition and method for reducing hair loss from human scalp” (priority 1982, dated 1996).

Series [1] relates to MPB (male pattern baldness). The series is described as follows: Clinical cases, male pattern baldness (MPB), topical application. In kind it is in vivo, human. The following applies: The patient; Resorcinol and other lotions for application. The source says:
The following preparations were used in the tests (1)-(22). MPB represents male pattern baldness.

The next series deals with 5α-DHT receptor protein. The series is described as follows: Inhibitory effect on binding of 5α-DHT with the receptor protein. To be noted: for Rate of inhibition (binding of 5α-DHT with the receptor protein): 10^-6 molar concentration. As for the experimental part:
Based on the method of Takayasu et al. (Arch. Dermatol. Res., 264, 50-51, 1979), the amount of 5α-DHT bound with the receptor protein was measured. The concentration of the sample used in the experiment was 10^-6 molar concentration. The rate of inhibition was calculated from the following equation using the resulting data.
Rate of inhibition (%)=(C-t/C)×100
C: the amount of 5α-DHT bound with the receptor protein in a control
t: the amount of 5α-DHT bound with the receptor protein when the sample was added

For series [2], the target named is T1, testosterone-5α-reductase (Mesocricetus auratus, UniProt C7T2J7).
T1 construct: by using the sebaceous gland at the back of a hamster; from tissue; host or cells: sebaceous gland at the back of a hamster
T1 sequence (C7T2J7 1-255): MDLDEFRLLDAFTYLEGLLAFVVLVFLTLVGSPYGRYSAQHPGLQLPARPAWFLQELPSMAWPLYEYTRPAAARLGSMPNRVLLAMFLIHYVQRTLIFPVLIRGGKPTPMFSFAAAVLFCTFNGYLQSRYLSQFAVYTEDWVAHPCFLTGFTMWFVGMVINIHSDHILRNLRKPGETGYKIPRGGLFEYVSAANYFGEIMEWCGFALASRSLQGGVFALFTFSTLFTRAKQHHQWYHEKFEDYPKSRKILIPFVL
The series is described as follows: Inhibitory effect on the reductase activity (testosterone reduced to 5α-DHT, hamster sebaceous gland). The series is classed as biochemical. To be noted: for inhibition at 100 µM: 10^-4 molar concentration; for inhibition at 100 µM / inhibition at 10 µM: read-out: Rate of inhibition (reductase activity); for inhibition at 10 µM: 10^-5 molar concentration. As for the experimental part:
Based on the method of Takayasu et al. (The Nishinihon Journal of Dermatology, 43, 1215-1217, 1981), the amount of testosterone reduced to 5α-DHT was measured by using the sebaceous gland at the back of a hamster. The concentrations of the samples used in the experiment were 10^-4 and 10^-5 molar concentrations, respectively. The rate of inhibition was calculated from the following equation using the resulting data.
Rate of inhibition (%)=(C-t/C) ×100
C: the amount of 5α-DHT formed in a control
t: the amount of 5α-DHT formed when the sample was added

Series [3] can be described thus: Acute toxicity (LD50) of oxendolone, rat. To be noted: in vivo. The source says: (§1) The systemic acute toxicity of oxendolone is as follows:
(§2) Acute Toxicity (LD50 : mg/kg)

Series [4] deals with head sebum / basal cells of hair. The experiment in a line: Decrease of head sebum and mitosis of basal cells of hair. To be noted: coupled with the defatting actions of ethanol.
Series [5] can be described thus: Acute toxicity (LD50) of oxendolone, mouse. To be noted: in vivo.
Text: as §1, §2

The test system of series [6] is uptake of testosterone into the cells. The series is described as follows: Inhibition of uptake of testosterone into the cells. The series is classed as cell-based.
The test system of the next series is hair and scalp. The series is described as follows: Toxicity test of the present hair grower (local application). In kind it is in vivo, human. To be noted: 0.2% ethanol solution.

In the case of `Oc1cccc(O)c1` [Resorcinol], the “effect of previous treatment, case (9)” value in [1] is on record as “no appreciable change”.

Take `C[C@]12CC[C@H]3[C@@H](CCC4=CC(=O)CC[C@@]43C)[C@@H]1CC[C@@H]2C(=O)O` [4-androsten-3-one-17β-carboxylic acid]: the “Rate of inhibition (binding of 5α-DHT with the receptor protein)” value in the series on 5α-DHT receptor protein is reported as 0%. Besides, in series [2], the inhibition (as a rule, the share of the control response that was lost under treatment) at 100 µM worked out at 54 ± 32% and the inhibition at 10 µM is 31 ± 19%.

As to `CC[C@H]1C[C@H]2[C@@H]3CCC4=CC(=O)CC[C@@H]4[C@H]3CC[C@]2(C)[C@H]1O` [Oxendolone, 16β-ethyl-17β-hydroxy-4-estren-3-one], the 50% lethal dose (LD50) (commonly the dose at which mortality reaches 50%) in [3] (im, female, intramuscular) was over 10000 mg/kg; in [3] (im, male, intramuscular), over 10000 mg/kg; in [3] (ip, female, intraperitoneal) it was 5880 mg/kg; in series [3] (ip, male, intraperitoneal), 6530 mg/kg; in series [5] (im, female, intramuscular), over 10000 mg/kg; in [5] (im, male, intramuscular) it was over 10000 mg/kg. Also, the LD50 stood at 2980 mg/kg in [5] (ip, female, intraperitoneal) and 2930 mg/kg in series [5] (ip, male, intraperitoneal). Moreover, the “decrease of head sebum and mitosis of basal cells of hair” value in series [4] was “synergistically produce a decrease of head sebum and promote the mitosis of basal cells of hair”. Also, the solubility in ethanol entry in the series “Solubility of oxendolone” (ethanol) is reported as “soluble”. For the same molecule, the “solubility in vegetable oils, squalane, alcohols, fatty acids, silicone oils, etc.” value in the series “Solubility of oxendolone” (vegetable oils etc.) is given as “dissolved totally or partially”. Moreover, the solubility in water result in the series “Solubility of oxendolone” (water) was “practically insoluble”. In addition, the “Rate of inhibition (binding of 5α-DHT with the receptor protein)” value with 5α-DHT receptor protein was 53%. Also, the “inhibitory effect on the binding of 5α-DHT with the receptor protein compared with 4-androsten-3-one-17β-carboxylic acid” value in the series with 5α-DHT receptor protein (comparison, Table 2) is “greater”. For the same molecule, the “inhibition of uptake of testosterone into the cells” value in series [6] is “inhibit uptake of testosterone into the cells”. Further, the inhibition at 100 µM in series [2] was determined as 43 ± 18%. Moreover, the inhibition at 10 µM in series [2] turned out to be 28 ± 28%. For the same molecule, the “inhibitory effect on the reductase activity compared with 4-androsten-3-one-17β-carboxylic acid” value in series [2] (comparison, Table 1) is on record as “equivalent inhibitory effect on the reductase activity”. In addition, the local acute toxicity entry in the series on hair and scalp (0.05 ml/cm^2, several times a day) was “No local acute toxicity was observed”. Further, the “other systemic or local side effect” value in the series on hair and scalp (in the application schedule) was “No other systemic or local side effect was observed”.
